# Peptide text beside a SMILES is read from it. * marks the point of attachment. Cbz = O=C(OCc1ccccc1)*; CH2F = FC*
# Experiments:
# MDA-MB-231 = assay: SKY analysis of NCCAs after proteasome inhibitor treatment; type: cell-based; conditions: immediately following treatment
# Text: (§1) Following probe denaturation, hybridization and SKY detection, randomly selected mitotic figures were photographed and analyzed by SKY imaging software. Fifty to hundred SKY images were captured for each cell population to identify commonly shared karyotype features and to reveal the karyotypic diversity of these various cell populations. NCCAs were scored by identifying chromosomal numbers, chromosome translocations/large deletions or other types of abnormality detected within a given mitotic cell. There are two steps needed to score frequencies of NCCAs and CCAs. First, a 4% cutoff line is used to identify any specific recurrent karyotypes or CCAs. The frequency of a CCA is determined by calculating the number of cells displaying the same CCA divided by the total cells examined (50-100). Non-clonal karyotypes (NCCAs) are classified as having a frequency lower than 4%. The total frequencies of NCCAs of a given cell population is then calculated by using all cells displaying NCCAs divided by the total cells examined.
# (§2) 5. A comparison of specific and non-specific drugs that target the same pathway: In order to compare directly the effects of challenging the same molecular pathway with specific or nonspecific drug treatments with regard to genome system stability and evolution, the protein degradation pathway was chosen. Two proteasome inhibitors, Bortezomib (also named Velcade or PS-341) and MG132 were used. […] Compared to 132, Bortezomib is more specific. Two breast cancer cell lines, MDA-MB-231 and BT549, were used for this comparison. […] After a few weeks culture, there seemed to be no drastic changes in terms of the formation of new karyotypes.
# BT549 = assay: as above; type: cell-based; conditions: following treatment
# Text: as §1, §2
# ER stress pathways = assay: ER stress agents, western blot and SKY analysis of NCCAs; type: cell-based; conditions: for NCCA levels: SKY analysis following a short period of culture; for ER stress pathway activation: western blot analysis following the drug treatment
# Text: The inventors herein then determined to use a more defined stress condition to validate the link between the stress and the genome evolution. Since the endoplasmic reticulum (ER) has an important role in sensing cellular stress, and the ER stress is well studied, the inventors hypothesize that the defined ER stress will also generate elevated NCCAs leading to the formation of new karyotypes. Specific agents were used to target specific pathways of ER stress including tharpsigargin, tunicamycin and DTT. Tunicamycin interferes with glycalation and results in induction of ER stress. Tharpsigargin inhibits the endoplasmic reticulum calcium ATPase, and results in the release of calcium from the ER, and DTT induces reductive stress through its activity in breaking disulfide bonds which leads to induction of the unfolded protein response. […] As illustrated, the specific ER stress pathways were indeed active in three treatments.
# [1] = test system: cisplatin resistance cell line; assay: SKY analysis of NCCAs after Bcl-2 inhibitor treatment; type: cell-based
# Text: as §1
# 4. […] To examine this issue, TW-37, a small-molecule inhibitor drug that specifically binds to and inhibits Bcl-2 was used in a cisplatin resistance cell line that was previously tested. Under treatment conditions resulting in 50% cell death, surviving cells of two cell lines were followed with SKY analysis. […]
# HCT116 p53−/− cells [2] = assay: Mitotic catastrophe model, aphidicolin, scored for chromosome fragmentation; type: cell-based; conditions: for mitotic fraction: conventional cytogenetic analysis
# Protocol: (§3) Induction of mitotic catastrophe. Mitotic catastrophe was induced as herein described. HCT116 14-3-3−/− cells were treated for up to 72 h with 2 μg/mL doxorubicin and HCT116 p53−/−. The cells were treated with 1 μg/mL aphidicolin for up to 96 h and were each harvested every 24 h. Cytogenetic preparations and cytospin preparations were made allowing for chromosomal and morphologic analysis.
# (§4) The present mitotic cell death process differs from previously described mitotic catastrophe. Mitotic catastrophe has been loosely defined as cell death that results from aberrant mitoses. […] Not only do the definitions of mitotic catastrophe differ but there is also a lack of morphologic characterization of chromosomes from cells undergoing mitotic catastrophe. […] Cells were induced to undergo mitotic catastrophe according to published reports. Half of the cells were prepared using reported protocols and half were prepared according to standard cytogenetic procedure to score chromosome fragmentation frequency.
# HCT116 p53−/− cells [3] = conditions: 72 h, reported; cited from earlier work
# [4] = test system: OV433 and TOV112D cell lines; assay: Selection of cisplatin resistant clones, karyotypes by SKY; type: cell-based; conditions: 6-9 months of selection by gradually increased concentrations
# Protocol: 3. Less specific targeted drugs can cause karyotypic changes: A well accepted mechanism of drug resistance acquisition is a specific gene mutation linked to a defined molecular pathway such as the cell death pathway, multiple drug resistance pathway or chromosomal machinery that is responsible for genome integrity. In order to test such a mechanism in the context of genome system evolution, well characterized ovarian cancer cell lines were treated with cisplatin, which is a drug commonly used to treat various types of cancers. The mechanism of this drug is thought to be binding and cross-linking of DNA by platinum complexes, which ultimately triggers apoptosis. The mechanisms of cisplatin resistance have been proposed to include changes in cellular uptake, increased detoxification of the drug, inhibition of apoptosis and increased DNA repair.
# The karyotypes were examined by SKY and some key pathways possibly related to the acquisition of drug resistance in the clones were analyzed by western blots.
# cell population = assay: High stress drug treatment, NCCAs and karyotypes; type: cell-based; conditions: immediately after treatment of a high dosage
# Text: First, the same cell line was used with both “high” and “low” levels of stress applied respectively. High stress was applied through chemo-therapy drug treatments (doxorubicin) (Dox) while low stress was generated by altering culture conditions. […] This was illustrated by the drastically altered karyotypes in every cell examined, which persisted until certain karyotypes became dominant (completing the transition from high levels of NCCAs to specific CCAs) following at least 6 weeks of culture in a drug free medium.
# HCT116 14-3-3−/− cells = assay: Mitotic catastrophe model, doxorubicin, scored for chromosome fragmentation; type: cell-based; conditions: low dose of doxorubicin
# Protocol: as §3, §4
# mitotic cells = assay: Induction of chromosome fragmentation (fragmentation index, cytogenetic scoring); type: cell-based
# Protocol: Induction of chromosome fragmentation. After 3 to 8 h treatment of colcemid, mitotic cells were gently shaken off and resuspended in culture medium containing colcemid. Cells were then treated with doxorubicin or methotrexate at 1 μg/mL for various times. Cytogenetic examination. Cells were harvested and cytogenetic slides were prepared using standard protocols. Slides were stained by Giemsa for scoring nuclear structures or stored at −20° C. for further characterization including spectral karyotyping (SKY) and antibody staining. The fragmentation index was determined by dividing the number of cells displaying chromosome fragmentation by the total number of mitotic cells, including cells undergoing chromosome fragmentation.
# caspase-3 = target: T1, caspase-3 (Homo sapiens, UniProt P42574); assay: Caspase-3 colorimetric activity assay; type: cell-based; conditions: 20 μmol/L, cells treated with colcemid and doxorubicin
# T1 construct: endogenous in cells; host or cells: HCT116
# T1 sequence (P42574 29-175 limits assumed): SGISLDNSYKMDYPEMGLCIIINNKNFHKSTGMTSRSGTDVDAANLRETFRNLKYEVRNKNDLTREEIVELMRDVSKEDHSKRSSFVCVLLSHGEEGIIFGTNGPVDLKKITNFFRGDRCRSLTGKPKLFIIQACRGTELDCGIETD
# T1 sequence (P42574 176-277 limits assumed): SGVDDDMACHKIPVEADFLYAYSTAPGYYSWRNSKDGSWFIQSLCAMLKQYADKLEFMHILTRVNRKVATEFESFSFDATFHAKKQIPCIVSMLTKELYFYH
# Protocol: Caspase-3 activity. Caspase-3 activity was measured using the caspase-3 colorimetric assay kit from R&D Systems as herein described. HCT116 cells were treated for 8 h with colcemid with and without z-vad-fmk. Mitotic cells were then shaken off and treated with doxorubicin for an additional 6 h and 12 h.
# HCT116 cells = assay: Caspase inhibition during induced chromosome fragmentation; type: cell-based; conditions: pretreatment with z-vad-fmk, then colcemid and doxorubicin, 6 and 12 h
# Protocol: Cytogenetic examination. Cells were harvested and cytogenetic slides were prepared using standard protocols. Slides were stained by Giemsa for scoring nuclear structures or stored at −20° C. for further characterization including spectral karyotyping (SKY) and antibody staining. The fragmentation index was determined by dividing the number of cells displaying chromosome fragmentation by the total number of mitotic cells, including cells undergoing chromosome fragmentation.
# Caspase inhibition. Caspase activity was inhibited by treatment of HCT116 cells for 12 h with […] z-vad-fmk followed induction of chromosome fragmentation (by concurrent treatment with colcemid and 1 μg/mL doxorubicin) for 6 or 12 h in the presence of or after removal of z-vad-fmk. Following treatment, cytogenetic slides were made and scored.
compound,measurement,setting,value
CC(C)C[C@H](NC(=O)[C@H](Cc1ccccc1)NC(=O)c1cnccn1)B(O)O [Bortezomib],NCCAs,MDA-MB-231,showed an increase in NCCAs
same,NCCA frequencies,BT549,failed to generate increased NCCA frequencies
O[C@@H](CS)[C@@H](O)CS [DTT],NCCA levels,ER stress pathways,elevated NCCAs were observed
same,ER stress pathway activation,ER stress pathways,indeed active
CC(C)C[C@@H](C=O)NC(=O)[C@H](CC(C)C)NC(=O)[C@H](CC(C)C)NC(=O)OCc1ccccc1 [MG132] (Cbz-Leu-Leu-Leu-aldehyde),NCCAs,MDA-MB-231,showed an increase in NCCAs
same,NCCA frequencies,BT549,failed to generate increased NCCA frequencies
CC(C)c1ccccc1Cc1cc(C(=O)Nc2ccc(S(=O)(=O)c3ccccc3C(C)(C)C)cc2)c(O)c(O)c1O [TW-37],formation of new karyotypes,[1]; after a few weeks of culture,new stable karyotypes were detected
same,frequencies of NCCAs,"[1]; treatment conditions resulting in 50% cell death, surviving cells of two cell lines",increased
C[C@@]1(CO)[C@H](O)CC[C@@]2(C)[C@H]1CC[C@H]1C[C@@H]3C[C@@]12CC[C@]3(O)CO [aphidicolin],mitotic fraction,HCT116 p53−/− cells [2]; 72 h,3.2%
same,chromosome breaks,HCT116 p53−/− cells [2]; 96 h,evident in the majority of chromosome spreads
same,mitotic fraction,HCT116 p53−/− cells [2]; 96 h,5.4%
same,cells died,HCT116 p53−/− cells [3],40%
N.N.[Cl][Pt][Cl] [cisplatin],karyotypes of drug resistant clones,[4],drastically different karyotypes
COc1cccc2c1C(=O)c1c(O)c3c(c(O)c1C2=O)C[C@@](O)(C(=O)CO)C[C@@H]3O[C@H]1C[C@H](N)[C@H](O)[C@H](C)O1 [doxorubicin],level of NCCAs,cell population,a high level of NCCAs was quickly detected
same,phosphorylated H3 staining,HCT116 14-3-3−/− cells,only a very small fraction of cells show any positive signal
same,chromosome fragmentation,HCT116 14-3-3−/− cells; conventional cytogenetic protocols,chromosome fragmentation was not evident
same,induction of chromosome fragmentation,mitotic cells,can induce chromosome fragmentation
same,chromosome fragmentation in interphase cells,"mitotic cells; interphase cells, doxorubicin and colcemid preceded by a double thymidine block, up to 24 h",no chromosome fragmentation was observed
same,mitotic cells showing a degree of chromosome fragmentation,"mitotic cells; mitotic shake-off cells arrested with colcemid, concurrent doxorubicin, within 12 h",~100%
CN(Cc1cnc2nc(N)nc(N)c2n1)c1ccc(C(=O)N[C@@H](CCC(=O)O)C(=O)O)cc1 [methotrexate],induction of chromosome fragmentation,mitotic cells,can induce chromosome fragmentation
COC(=O)C[C@H](NC(=O)[C@H](C)NC(=O)[C@@H](NC(=O)OCc1ccccc1)C(C)C)C(=O)CF [z-vad-fmk] (Cbz-Val-Ala-Asp(OMe)-CH2F),caspase-3 reactivity,caspase-3,largely inhibited
same,chromosome fragmentation frequency upon caspase inhibition,HCT116 cells,not significantly altered
tharpsigargin,NCCA levels,ER stress pathways,elevated NCCAs were observed
same,ER stress pathway activation,ER stress pathways,indeed active
tunicamycin,NCCA levels,ER stress pathways,elevated NCCAs were observed
same,ER stress pathway activation,ER stress pathways,indeed active

# Reference: patent publication US20100233701A1, “Use of non-clonal chromosomal aberrations for cancer research and clinical diagnosis” (priority 2008, published 2010)
